Among the data in PubChem BioAssay (NCI) are GI50 and TGI values, retold here.

Test in all cases: growth of human tumour cells (NCI), 48 h
Assay [1] relates to A498 renal.
In assay [2] the test system is K-562 leukemia.
Assay [3] concerns HS 578T breast.
Assay [4] deals with TK-10 renal.
Assay [5] deals with SK-MEL-2 melanoma.
Assay [6] deals with UO-31 renal.
Assay [7] deals with SF-268 CNS.
Assay [8] has as its system 786-0 renal.
Assay [9] concerns NCI-H522 lung.
The test system of assay [10] is MALME-3M melanoma.

Where “and” joins values, the source holds several entries; their conditions need not be identical. Equal entries are not always repeated.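 These data come from cells grown in 96-well plates and exposed to compound for 48 hours at five concentrations. At the GI50, growth is halved. TGI: total growth inhibition.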

Consider `Cc1cc2nc(-c3c(F)cccc3Cl)n(Cc3c(F)cccc3Cl)c2cc1C`, for which the GI50 was 15.5 µM in assay [1]; 39.4 µM in [2]; 15.8 µM in [3]; 15.1 µM in assay [4]; 50.2 µM in [5]; 13.2 µM in [6]. For the same compound, the GI50 in [7] is 11 µM; in assay [8], 15.8 µM; in assay [9], 20.3 µM. Besides, the TGI was 32.2 µM in assay [1]; more than 100 µM in [2]; 48.4 µM in assay [3]; 46.5 µM in [4]; more than 100 µM in assay [5]; 54.5 µM in [6]. Moreover, the TGI in [7] came out at 31.7 µM; in assay [8], 31.3 µM; in assay [9] it was 48.9 µM.
Take `COC(=O)/C(=N\Nc1nnc(C)n1N)C(C#N)c1ccccc1` (stereo not drawn): the TGI was more than 100 µM in assay [1]; more than 100 µM in assay [2]; more than 100 µM in assay [3]; 46.5 µM in assay [10]; more than 100 µM in assay [4]; more than 100 µM in assay [5]. Moreover, the TGI in [6] is more than 100 µM; in assay [7], more than 100 µM; in assay [8] it was more than 55.1 µM; in [9] it was more than 100 µM.
Take `CCCCCCCCCCCCCCCCOCC(O)CO` (stereo not drawn): the TGI in [1] came out at 34.5 µM; in [3], 39.7 µM; in assay [10] it was 36.1 µM; in assay [4], 28.9 µM; in assay [5] it was 40.1 µM; in assay [6], 32.4 µM. Moreover, the TGI in assay [7] came out at 36 µM; in assay [8], 32.8 µM; in assay [9], 33.2 µM.
For the compound `COc1cc2c(cc1OCCCOc1ccc(-c3nc4ccc(N5CCN(C)CC5)cc4[nH]3)cc1)N=C[C@@H]1CCCN1C2=O`, the GI50 in [1], in [2], in assay [3], in assay [10], in [4] and in assay [5] was less than 0.01 µM throughout. Moreover, the GI50 in [7], in assay [8] and in assay [9] was less than 0.01 µM in each case. Besides, the TGI in [1] is less than 0.01 µM; in [2], 0.818 µM; in assay [3], less than 0.01 µM; in assay [10], less than 0.01 µM; in assay [4] it was 0.492 µM; in assay [5], less than 0.01 µM. The values for the TGI in assay [8] and in assay [9] were 0.524 µM and less than 0.01 µM, respectively.
In the case of `O=C(Cc1ccccc1)NN1C(=O)/C(=C\c2ccccc2O)SC1=Nc1ccccc1`, the TGI in assay [1], in assay [3], in assay [4], in assay [5], in assay [6] and in assay [7] was more than 100 µM throughout. In addition, the TGI in [8] is more than 100 µM.
For `Cc1cc2nc3c4ccc(Br)cc4n(CCN(C)C)c3nc2cc1C`, the GI50 in [1] was 1.02 µM; in [3], 2.06 µM; in assay [10], 1.44 µM; in assay [4] it was 1.97 µM; in assay [5], 2 µM; in [6], 0.561 µM. Also, the GI50 in [7] is 2 µM; in [8], 1.44 µM; in assay [9] it was 1.99 µM. Moreover, the TGI turned out to be 2.54 µM in assay [1]; 6.38 µM in assay [3]; 2.92 µM in assay [10]; 7.23 µM in assay [4]; 4.24 µM in [5]; 9.5 µM in assay [6]. Besides, the TGI was 6.24 µM in [7], 7.65 µM in [8] and 4.66 µM in assay [9].
For `CC(=O)Nc1ccc(-c2nnc(SCC(=O)Nc3ccc(Cl)cc3)o2)cc1`, the TGI was 31.7 µM in assay [1]; more than 100 µM in assay [2]; 29.4 µM in assay [10]; 32.4 µM in [4]; 49 µM in assay [5]; 33.6 µM in assay [6]. For the same compound, the TGI was 20.1 µM in [7], 19.6 µM in assay [8] and 5.98 µM in assay [9].
With `COc1ccc2c([nH]c3c(O)c(-c4c(C)cc5c([nH]c6c(CC=C(C)C)c(OC)ccc65)c4O)c(C)cc32)c1CC=C(C)C`, the TGI in assay [1], in assay [2], in [10], in assay [4], in assay [5] and in assay [6] was more than 100 µM in each case. Also, the TGI in [7], in [8] and in assay [9] was more than 100 µM throughout.
For `COc1cc(Cn2c(-c3ccccc3)cc3c2-c2oncc2CC3)cc(OC)c1`, the GI50 in assay [1] is 0.153 µM; in assay [2], 0.201 µM; in assay [3], 0.264 µM; in [4], 2.44 µM; in assay [5] it was 81.2 µM; in assay [6], 0.665 µM. Also, the GI50 in assay [7] is 0.876 µM; in assay [8], 0.601 µM; in assay [9], 0.0891 µM. Further, the TGI was 0.75 µM in assay [1]; more than 100 µM in assay [2]; 50.1 µM in assay [3]; more than 100 µM in assay [4]; more than 100 µM in assay [5]; more than 100 µM in assay [6]. The TGI in assay [7] was more than 100 µM; in assay [8] it was more than 100 µM; in assay [9] it was 1.98 µM.
In the case of `COc1ccc(NC(=O)C2C(=O)N(c3ccc(OC)cc3)C(=O)/C2=N\NC(N)=O)cc1` (stereo not drawn), the TGI in assay [1] is 45 µM; in assay [2], more than 100 µM; in assay [10], 68.5 µM; in assay [4], 70.9 µM; in assay [5], more than 100 µM; in assay [6] it was 80.8 µM. Further, the TGI in assay [7] is 63.9 µM; in assay [8], 49.3 µM; in [9] it was more than 100 µM.
In the case of `NS(=O)(=O)c1ccc(NC(=O)c2cccc(NC3=C(Cl)C(=O)N(Cc4ccccc4)C3=O)c2)cc1`, the GI50 in assay [1] was 9.25 µM; in assay [2], 2.27 µM; in assay [3], 7.92 µM; in assay [4], 15.2 µM; in [5] it was 10.3 µM; in assay [6], 2.27 µM. For the same compound, the figures for the GI50 in [7], in [8] and in [9] were 11.7 µM, 21.5 µM and 12.1 µM, respectively. Also, the TGI in assay [1] was found to be 23.7 µM; in assay [2], 6.09 µM; in assay [3], 36.7 µM; in assay [4], 31.4 µM; in assay [5], 33.2 µM; in [6] it was 6.4 µM. The TGI is 32.4 µM in assay [7], more than 100 µM in assay [8] and 30.9 µM in [9].
For the compound `S=c1c2ccccc2c(=S)n2n1CC=CC2`, the TGI in assay [1], in [2], in assay [10], in [4], in [5] and in [6] was more than 100 µM in each case. Moreover, the TGI in assay [7], in [8] and in [9] was more than 100 µM each time.
For `CCCCCCCCCCCCCCCCCC(=O)NCC(COP(=O)(O)O)OCC` (stereo not drawn), the TGI was more than 100 µM in assay [1]; more than 100 µM in assay [2]; more than 100 µM in [10]; more than 100 µM in assay [4]; more than 100 µM in [5]; 83.2 µM in assay [6]. For the same compound, the TGI in [7] is 61.2 µM; in assay [8] it was more than 100 µM; in assay [9], more than 100 µM.
On to H-QIYKKYRTWYRKAWKVLGKV-NH2, for which the GI50 in assay [2] is 3.21 µM; in assay [3], 2.57 µM; in [4], 6.35 µM; in [5], 16.5 µM; in assay [6], 19.2 µM; in [7] it was 3.99 µM. Also, the GI50 is 3.04 µM in [8] and 25.8 µM in [9]. Besides, the TGI in assay [2] is more than 100 µM; in assay [3], 8.51 µM; in assay [4], 29.8 µM; in assay [5], 49.8 µM; in assay [6], 39.5 µM; in [7], 30.5 µM. Further, the figures for the TGI in assay [8] and in [9] were 16.8 µM and more than 100 µM, respectively.
On to `O=c1[nH]cc(C(F)(C(F)(F)F)C(F)(F)F)c(=O)[nH]1`, for which the TGI in assay [1], in assay [2], in assay [10], in assay [4], in assay [5] and in [6] was more than 100 µM each time. The TGI in [7], in [8] and in assay [9] was more than 100 µM each time.
As to `O=C(Nc1nc2ccccc2s1)c1cc(-c2ccc(F)cc2)n2nc(-c3ccccc3)cc2n1`, the GI50 in assay [1] was 1.86 µM; in [2], 4.25 µM; in assay [3], 2.29 µM; in assay [10], 3.74 µM; in assay [4], 2.45 µM; in assay [5], 3.15 µM. Further, the results for the GI50 in [7] and in assay [8] were 3.89 µM and 2.12 µM, respectively. Further, the TGI in [1] is 5.49 µM; in assay [2], 15.3 µM; in assay [3], 8.64 µM; in assay [10], more than 100 µM; in [4], 5.54 µM; in assay [5], 8.97 µM. In addition, the results for the TGI in assay [7] and in assay [8] were more than 100 µM and 5.1 µM, respectively.
On to `CC(C)[Si](OCC1CC(C#N)OC(C)(C)O1)(C(C)C)C(C)C` (stereo not drawn), for which the TGI in assay [1] is 19.1 µM; in assay [2], 37.9 µM; in assay [10], 57.6 µM; in assay [4], more than 100 µM; in [5] it was 30.6 µM; in assay [6], 40.9 µM. Moreover, the TGI in assay [7] is 82.7 µM; in [8], 35.2 µM; in [9], 43.5 µM.
For the compound `CC(=O)OC(=O)O/C=C\CCl`, the TGI in assay [1], in [2], in [10], in [4], in assay [5] and in [6] was more than 100 µM in each case. Further, the TGI in assay [7] is more than 100 µM; in [8] it was more than 100 µM; in [9], 33.1 µM.
`Cc1c2ccncc2c(C)c2c1[nH]c1ccc(Cl)cc12`: the TGI in assay [1] was 14.7 µM; in assay [2], 3.67 µM and 3.79 µM; in assay [10], 14.3 µM and 15.2 µM; in assay [4], 18.1 µM; in [5], 7.17 µM and 10.9 µM; in [6] it was 8.15 µM and 16.3 µM. Besides, the TGI was 12.5 µM and 25.2 µM in assay [7]; 2.27 µM in assay [8]; 9.18 µM and 17.1 µM in assay [9]. The GI50 in assay [2] was 1.21 µM; in [10], 3.63 µM; in assay [6] it was 4.44 µM; in assay [7], 2.63 µM and 2.66 µM.
Consider `O=C1C=Cc2ncccc2C1=O`, for which the TGI in [1] was more than 91.5 µM; in assay [2] it was 26.4 µM; in assay [10], more than 57.2 µM; in assay [4] it was more than 58.8 µM; in assay [5], 39.2 µM; in assay [6], more than 57.7 µM. Further, the TGI is more than 59.2 µM in [7], 29.1 µM in assay [8] and 29.7 µM in assay [9].
For `O=C(/C=C/c1ccccc1)CCC1C(=O)NC(=S)NC1=O`, the TGI in [1], in [2], in assay [3], in assay [5], in [6] and in [7] was more than 100 µM in each case. For the same compound, the TGI in assay [8] was more than 100 µM.
Regarding `Nc1ccn(C2OC(C(OC3OC(CO)C(O)C(N)C3O)C(O)C(O)C(O)C(O)CO)C(N)C(O)C2O)c(=O)n1` (stereo not drawn), the TGI in assay [1] was more than 100 µM; in assay [3] it was 7.27 µM; in assay [4], more than 100 µM; in assay [5], more than 100 µM; in assay [6] it was more than 100 µM; in [7], 68.6 µM. In addition, the results for the TGI in assay [8] and in assay [9] were more than 100 µM and 93.5 µM, respectively.
Turning to `CN=C(N)N/N=C(\C)c1ccc2c(c1)Cc1ccccc1-2`, the GI50 in assay [1] is 2.89 µM; in assay [2] it was 1.28 µM; in assay [3], 3.17 µM; in assay [10] it was 1.51 µM; in assay [4] it was 3.18 µM; in assay [5] it was 1.87 µM. For the same compound, the values for the GI50 in [6], in [7] and in assay [8] were 1.43 µM, 2.13 µM and 1.86 µM, respectively. Besides, the TGI came out at 9.21 µM in assay [1]; 2.69 µM in [2]; 3.02 µM in assay [10]; 14.8 µM in [4]; 3.81 µM in assay [5]; 2.89 µM in assay [6]. Further, the figures for the TGI in assay [7] and in assay [8] were 5.25 µM and 3.74 µM, respectively.
